Results: ChEMBL document CHEMBL3044604, “Synthesis of some substituted furan-2(5H)-ones and derived quinoxalinones as potential anti-microbial and anti-cancer agents” (Med Chem Res, 2011)
In brackets after ≈: the same amount, converted by molar mass.

How the values were obtained:
Pseudomonas aeruginosa [1] = experiment: Antibacterial activity against Pseudomonas aeruginosa ATCC 9027 at 1 mg/ml after 24 hr by agar cup diffusion method; assay type: functional; details: ATCC 9027, 24 h, read-out: DIZ
[2] = Inhibition of Marthasterias glacialis CDK1/cyclin B using histone H1 as substrate and [gamma32P]ATP after 10 min by scintillation counting
Candida albicans [3] = experiment: Antifungal activity against Candida albicans ATCC 10231 incubated for 48 hr followed by subculturing measured after 18 hr; assay type: functional
[4] = biological target: Cyclin-dependent kinase 5/CDK5 activator 1 (Homo sapiens, UniProt Q00535); experiment: Inhibition of CDK5/p25 (unknown origin); assay type: protein-complex assay
Cyclin-dependent kinase 5/CDK5 activator 1, sequence (Q00535 whole entry, the tested form may be a part): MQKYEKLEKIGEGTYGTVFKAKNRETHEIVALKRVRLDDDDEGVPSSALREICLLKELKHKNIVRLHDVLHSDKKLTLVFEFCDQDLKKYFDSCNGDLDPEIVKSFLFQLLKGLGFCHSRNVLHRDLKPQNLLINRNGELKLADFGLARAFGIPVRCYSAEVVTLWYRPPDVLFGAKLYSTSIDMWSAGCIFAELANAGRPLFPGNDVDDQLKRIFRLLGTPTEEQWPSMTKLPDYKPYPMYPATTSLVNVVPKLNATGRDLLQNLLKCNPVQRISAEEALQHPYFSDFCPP
Cyclin-dependent kinase 5/CDK5 activator 1, sequence (Q15078 whole entry, further chain, the tested form may be a part): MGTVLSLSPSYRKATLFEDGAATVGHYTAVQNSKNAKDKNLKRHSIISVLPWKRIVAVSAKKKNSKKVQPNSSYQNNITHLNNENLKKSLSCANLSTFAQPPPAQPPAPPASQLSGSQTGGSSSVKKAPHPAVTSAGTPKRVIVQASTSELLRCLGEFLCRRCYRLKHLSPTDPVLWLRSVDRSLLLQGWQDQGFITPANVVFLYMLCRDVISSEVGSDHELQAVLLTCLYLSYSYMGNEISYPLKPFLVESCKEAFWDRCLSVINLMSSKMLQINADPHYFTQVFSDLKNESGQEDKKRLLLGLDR

Escherichia coli [5] = experiment: Antibacterial activity against Escherichia coli NCTC 10418 at 1 mg/ml after 24 hr by agar cup diffusion method; assay type: functional; details: NCTC 10418, 24 h, read-out: DIZ
[6] = biological target: Glycogen synthase kinase-3 (Homo sapiens, UniProt P49840+P49841); experiment: Inhibition of GSK3alpha/beta (unknown origin); assay type: protein assay
Escherichia coli [7] = experiment: Antibacterial activity against Escherichia coli NCTC 10418 after 48 hr by two-fold serial dilution method; assay type: functional; details: NCTC 10418, 48 h
Candida albicans [8] = experiment: Antifungal activity against Candida albicans ATCC 10231 after 48 hr by two-fold serial dilution method; assay type: functional; details: ATCC 10231, 48 h
Candida albicans [9] = experiment: Antifungal activity against Candida albicans ATCC 10231 at 1 mg/ml after 24 hr by agar cup diffusion method; assay type: functional; details: ATCC 10231, 24 h, read-out: DIZ
Escherichia coli [10] = experiment: Antibacterial activity against Escherichia coli NCTC 10418 incubated for 48 hr followed by subculturing measured after 18 hr; assay type: functional
Staphylococcus aureus [11] = experiment: Antibacterial activity against Staphylococcus aureus ATCC 6538 at 1 mg/ml after 24 hr by agar cup diffusion method; assay type: functional; details: ATCC 6538, 24 h, read-out: DIZ
Staphylococcus aureus [12] = experiment: Antibacterial activity against Staphylococcus aureus ATCC 6538 after 48 hr by two fold serial dilution method; assay type: functional; details: ATCC 6538, 48 h
Staphylococcus aureus [13] = experiment: Antibacterial activity against Staphylococcus aureus ATCC 6538 incubated for 48 hr followed by subculturing measured after 18 hr; assay type: functional
Pseudomonas aeruginosa [14] = experiment: Antibacterial activity against Pseudomonas aeruginosa ATCC 9027 incubated for 48 hr followed by subculturing measured after 18 hr; assay type: functional
Pseudomonas aeruginosa [15] = experiment: Antibacterial activity against Pseudomonas aeruginosa ATCC 9027 after 48 hr by two-fold serial dilution method; assay type: functional; details: ATCC 9027, 48 h

SMILES	zone of inhibition at 1000 µg/mL (Pseudomonas aeruginosa [1])	IC50 [2]	MFC (Candida albicans [3])	IC50 [4]	zone of inhibition at 1000 µg/mL (Escherichia coli [5])	IC50 [6]	MIC (Escherichia coli [7])	MIC (Candida albicans [8])	zone of inhibition at 1000 µg/mL (Candida albicans [9])	MBC (Escherichia coli [10])	zone of inhibition at 1000 µg/mL (Staphylococcus aureus [11])	MIC (Staphylococcus aureus [12])	MBC (Staphylococcus aureus [13])	MBC (Pseudomonas aeruginosa [14])	MIC (Pseudomonas aeruginosa [15])
O=C(O)C(=O)/C=C/c1cn(-c2ccccc2)nc1-c1ccccc1	12 mm	> 10 µM	125 µg/mL (≈ 393 µM)	> 10 µM	19 mm	> 10 µM	31.2 µg/mL (≈ 98.2 µM)	31.2 µg/mL (≈ 98.2 µM)	21 mm	125 µg/mL (≈ 393 µM)	–	–	–	–	–
Clc1ccccc1C(c1ccccc1)(c1ccccc1)n1ccnc1 [CLOTRIMAZOLE]	–	–	15.6 µg/mL (≈ 45.3 µM)	–	–	–	–	7.81 µg/mL (≈ 22.6 µM)	28 mm	–	–	–	–	–	–
Cc1nn(-c2ccccc2)c(C)c1C1OC(=O)C(O)=C1Cl (configuration not stated)	–	> 10 µM	–	> 10 µM	–	> 10 µM	–	–	16.5 mm	–	–	–	–	–	–
O=C(O)C(=O)/C=C/c1cn(-c2ccccc2)nc1-c1ccc(Br)cc1	13 mm	> 10 µM	31.2 µg/mL (≈ 78.7 µM)	> 10 µM	19 mm	> 10 µM	62.5 µg/mL (≈ 157 µM)	7.81 µg/mL (≈ 19.7 µM)	21 mm	> 500 µg/mL	–	–	–	–	–
O=C1OC(c2cn(-c3ccccc3)nc2-c2ccc(Br)cc2)C(Br)=C1O (configuration not stated)	–	> 10 µM	–	> 10 µM	17 mm	> 10 µM	–	–	16 mm	–	18 mm	125 µg/mL (≈ 263 µM)	250 µg/mL (≈ 525 µM)	–	–
O=C(O)/C(Br)=C/c1ccc(Cl)cc1	18 mm	> 10 µM	–	> 10 µM	18 mm	> 10 µM	125 µg/mL (≈ 478 µM)	–	15 mm	500 µg/mL (≈ 1910 µM)	30 mm	125 µg/mL (≈ 478 µM)	500 µg/mL (≈ 1910 µM)	62.5 µg/mL (≈ 239 µM)	31.2 µg/mL (≈ 120 µM)
COc1ccc(-c2nn(-c3ccccc3)cc2C2OC(=O)C(O)=C2Br)cc1 (configuration not stated)	–	> 10 µM	–	> 10 µM	–	> 10 µM	–	–	15 mm	–	–	–	–	–	–
O=C1OC(c2ccccc2)C(I)=C1O (configuration not stated)	–	> 10 µM	125 µg/mL (≈ 414 µM)	> 10 µM	–	> 10 µM	–	62.5 µg/mL (≈ 207 µM)	20.5 mm	–	–	–	–	–	–
O=C(COC1=C(Br)C(c2ccccc2)OC1=O)NCc1ccccc1 (configuration not stated)	25 mm	> 10 µM	–	> 10 µM	24 mm	> 10 µM	7.81 µg/mL (≈ 19.4 µM)	–	17 mm	15.6 µg/mL (≈ 38.8 µM)	23 mm	7.81 µg/mL (≈ 19.4 µM)	15.6 µg/mL (≈ 38.8 µM)	31.2 µg/mL (≈ 77.7 µM)	7.81 µg/mL (≈ 19.4 µM)
O=c1[nH]c2ccccc2nc1/C(I)=C/c1ccc(Cl)cc1	16.5 mm	> 10 µM	–	> 10 µM	15 mm	> 10 µM	–	–	–	–	–	–	–	–	–
O=C1OC(c2ccc(Cl)cc2)C(I)=C1O (configuration not stated)	–	> 10 µM	–	> 10 µM	–	> 10 µM	–	–	17 mm	–	–	–	–	–	–
Cc1nn(-c2ccccc2)c(C)c1/C=C(\I)c1nc2ccccc2[nH]c1=O	17.5 mm	> 10 µM	–	> 10 µM	20 mm	> 10 µM	62.5 µg/mL (≈ 133 µM)	–	–	250 µg/mL (≈ 534 µM)	–	–	–	–	–
Cc1nn(-c2ccccc2)c(C)c1C1OC(=O)C(O)=C1I (configuration not stated)	–	> 10 µM	–	> 10 µM	–	> 10 µM	–	–	17.5 mm	–	19 mm	31.2 µg/mL (≈ 78.9 µM)	62.5 µg/mL (≈ 158 µM)	–	–
O=C1OC(c2ccc(Cl)cc2)C(Br)=C1O (configuration not stated)	–	> 10 µM	62.5 µg/mL (≈ 216 µM)	> 10 µM	20 mm	> 10 µM	31.2 µg/mL (≈ 108 µM)	31.2 µg/mL (≈ 108 µM)	21 mm	125 µg/mL (≈ 432 µM)	20 mm	62.5 µg/mL (≈ 216 µM)	150 µg/mL (≈ 518 µM)	–	–
O=c1[nH]c2ccccc2nc1/C(Cl)=C/c1ccc(Cl)cc1	15 mm	> 10 µM	–	> 10 µM	–	> 10 µM	–	–	17 mm	–	25 mm	15.6 µg/mL (≈ 49.2 µM)	125 µg/mL (≈ 394 µM)	–	–
COc1ccc(C2OC(=O)C(O)=C2I)cc1OC (configuration not stated)	–	> 10 µM	–	> 10 µM	–	> 10 µM	–	–	17.5 mm	–	–	–	–	–	–
Cc1nn(-c2ccccc2)c(C)c1/C=C(\Br)C(=O)O	20 mm	> 10 µM	–	> 10 µM	19 mm	> 10 µM	31.2 µg/mL (≈ 97.3 µM)	–	–	125 µg/mL (≈ 389 µM)	–	–	–	62.5 µg/mL (≈ 195 µM)	31.2 µg/mL (≈ 97.3 µM)
Cc1nn(-c2ccccc2)c(C)c1C1OC(=O)C(O)=C1Br (configuration not stated)	–	> 10 µM	–	> 10 µM	17 mm	> 10 µM	–	–	17 mm	–	19 mm	62.5 µg/mL (≈ 179 µM)	125 µg/mL (≈ 358 µM)	–	–
O=C(O)/C(Br)=C/c1cn(-c2ccccc2)nc1-c1ccc(Br)cc1	18 mm	> 10 µM	–	> 10 µM	17 mm	> 10 µM	–	–	15 mm	–	33 mm	31.2 µg/mL (≈ 69.7 µM)	62.5 µg/mL (≈ 139 µM)	500 µg/mL (≈ 1120 µM)	250 µg/mL (≈ 558 µM)
O=C1OC(c2ccccc2)C(Br)=C1O (configuration not stated)	13.5 mm	> 10 µM	62.5 µg/mL (≈ 245 µM)	> 10 µM	21 mm	> 10 µM	62.5 µg/mL (≈ 245 µM)	31.2 µg/mL (≈ 123 µM)	20.5 mm	250 µg/mL (≈ 980 µM)	23 mm	62.5 µg/mL (≈ 245 µM)	> 500 µg/mL	–	–
O=c1[nH]c2ccccc2nc1/C(I)=C/c1ccccc1	–	> 10 µM	–	> 10 µM	–	> 10 µM	–	–	16 mm	–	–	–	–	–	–
COc1ccc(-c2nn(-c3ccccc3)cc2/C=C/C(=O)C(=O)O)cc1	13 mm	> 10 µM	125 µg/mL (≈ 359 µM)	> 10 µM	17 mm	> 10 µM	–	31.2 µg/mL (≈ 89.7 µM)	20 mm	–	19 mm	125 µg/mL (≈ 359 µM)	> 500 µg/mL	–	–
O=C1OC(c2cn(-c3ccccc3)nc2-c2ccccc2)C(Br)=C1O (configuration not stated)	19 mm	> 10 µM	–	> 10 µM	19 mm	> 10 µM	62.5 µg/mL (≈ 157 µM)	–	16.5 mm	250 µg/mL (≈ 629 µM)	–	–	–	125 µg/mL (≈ 315 µM)	62.5 µg/mL (≈ 157 µM)
CC1(C)S[C@@H]2[C@H](NC(=O)[C@H](N)c3ccccc3)C(=O)N2[C@H]1C(=O)O [AMPICILLIN]	–	–	–	–	26 mm	–	7.81 µg/mL (≈ 22.4 µM)	–	–	31.2 µg/mL (≈ 89.4 µM)	40 mm	3.9 µg/mL (≈ 11.2 µM)	15.6 µg/mL (≈ 44.7 µM)	250 µg/mL (≈ 715 µM)	125 µg/mL (≈ 358 µM)
